Converted amounts (≈) assume the structure as drawn.
Tests used:
Salmonella typhimurium = assay: Minimum inhibitory concentration against Salmonella Typhimurium was determined by agar dilution method using Mueller-Hinton; format: functional, Salmonella enterica subsp. enterica serovar Typhimurium; settings: Salmonella enterica
Pseudomonas aeruginosa [1] = assay: Minimum inhibitory concentration against Pseudomonas aeruginosa 1771M was determined by agar dilution method using Mueller-Hinton; format: functional
Streptococcus pyogenes = assay: Minimum inhibitory concentration against Streptococcus pyogenes 308A was determined by agar dilution method using Mueller-Hinton; format: functional
Pseudomonas aeruginosa [2] = assay: Minimum inhibitory concentration against Pseudomonas aeruginosa 1592E was determined by agar dilution method using Mueller-Hinton; format: functional
Escherichia coli [3] = assay: Minimum inhibitory concentration against Escherichia coli 055 was determined by agar dilution method using Mueller-Hinton; format: functional
Staphylococcus aureus [4] = assay: Minimum inhibitory concentration against Staphylococcus aureus 503 was determined by agar dilution method using Mueller-Hinton; format: functional
Pseudomonas aeruginosa [5] = assay: Minimum inhibitory concentration against Pseudomonas aeruginosa 9027 was determined by agar dilution method using Mueller-Hinton; format: functional
Escherichia coli [6] = assay: Minimum inhibitory concentration against Escherichia coli 1507E was determined by agar dilution method using Mueller-Hinton; format: functional
Klebsiella aerogenes = assay: Minimum inhibitory concentration against Klebsiella aerogenes 1522E was determined by agar dilution method using Mueller-Hinton; format: functional
Staphylococcus aureus [7] = assay: Minimum inhibitory concentration against Staphylococcus aureus 285 was determined by agar dilution method using Mueller-Hinton; format: functional
[8] = biological target: Dipeptidase 1 (Sus scrofa) (UniProt P22412); assay: Relative half life of hydrolysis to meropenem by partially purified porcine renal DHP-I was determined
Dipeptidase 1 (Sus scrofa), sequence (P22412 whole entry, looked up): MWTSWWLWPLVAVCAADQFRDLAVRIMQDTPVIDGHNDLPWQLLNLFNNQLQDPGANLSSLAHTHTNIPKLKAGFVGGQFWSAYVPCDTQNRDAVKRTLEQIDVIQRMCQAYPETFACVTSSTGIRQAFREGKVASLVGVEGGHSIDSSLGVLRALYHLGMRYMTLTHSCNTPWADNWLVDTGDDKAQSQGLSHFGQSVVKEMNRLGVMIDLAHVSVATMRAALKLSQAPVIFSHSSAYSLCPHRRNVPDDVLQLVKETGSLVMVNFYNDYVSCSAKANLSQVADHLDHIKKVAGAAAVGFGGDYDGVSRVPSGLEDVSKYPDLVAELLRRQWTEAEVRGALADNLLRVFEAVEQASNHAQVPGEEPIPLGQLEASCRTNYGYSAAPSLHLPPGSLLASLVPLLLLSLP

Enterobacter cloacae = assay: Minimum inhibitory concentration against Enterobacter cloacae 1321E was determined by agar dilution method using Mueller-Hinton; format: functional
Staphylococcus aureus [9] = assay: Minimum inhibitory concentration against Staphylococcus aureus SG 511 was determined by agar dilution method using Mueller-Hinton; format: functional

SMILES | MIC (Salmonella typhimurium) [µg/mL] | MIC (Pseudomonas aeruginosa [1]) [µg/mL] | MIC (Streptococcus pyogenes) [µg/mL] | MIC (Pseudomonas aeruginosa [2]) [µg/mL] | MIC (Escherichia coli [3]) [µg/mL] | MIC (Staphylococcus aureus [4]) [µg/mL] | MIC (Pseudomonas aeruginosa [5]) [µg/mL] | MIC (Escherichia coli [6]) [µg/mL] | MIC (Klebsiella aerogenes) [µg/mL] | MIC (Staphylococcus aureus [7]) [µg/mL] | Relativity [8] | MIC (Enterobacter cloacae) [µg/mL] | MIC (Staphylococcus aureus [9]) [µg/mL]
C[C@@H](O)[C@H]1C(=O)N2C(C(=O)O)=C(S[C@@H]3CN[C@H](/C=C/c4ccno4)C3)[C@H](C)[C@H]12 | 0.049 (≈ 0.121 µM) | 0.195 (≈ 0.481 µM) | 0.004 (≈ 0.00986 µM) | 0.195 (≈ 0.481 µM) | 0.025 (≈ 0.0617 µM) | 0.013 (≈ 0.0321 µM) | 0.195 (≈ 0.481 µM) | 0.025 (≈ 0.0617 µM) | 0.049 (≈ 0.121 µM) | 0.025 (≈ 0.0617 µM) | 1.95 | 0.025 (≈ 0.0617 µM) | 0.025 (≈ 0.0617 µM)
C[C@@H](O)[C@H]1C(=O)N2C(C(=O)O)=C(S[C@@H]3CN[C@H](/C=C/c4cc(CO)no4)C3)[C@H](C)[C@H]12 | 0.049 (≈ 0.113 µM) | 0.098 (≈ 0.225 µM) | 0.007 (≈ 0.0161 µM) | 0.195 (≈ 0.448 µM) | 0.025 (≈ 0.0574 µM) | 0.025 (≈ 0.0574 µM) | 0.195 (≈ 0.448 µM) | 0.025 (≈ 0.0574 µM) | 0.049 (≈ 0.113 µM) | 0.025 (≈ 0.0574 µM) | 2.01 | 0.025 (≈ 0.0574 µM) | 0.025 (≈ 0.0574 µM)
COC(=O)c1cc(/C=C\[C@@H]2C[C@H](SC3=C(C(=O)O)N4C(=O)[C@H]([C@@H](C)O)[C@H]4[C@H]3C)CN2)on1 | 0.025 (≈ 0.0539 µM) | 0.195 (≈ 0.421 µM) | 0.007 (≈ 0.0151 µM) | 0.195 (≈ 0.421 µM) | 0.025 (≈ 0.0539 µM) | 0.025 (≈ 0.0539 µM) | 0.098 (≈ 0.211 µM) | 0.025 (≈ 0.0539 µM) | 0.049 (≈ 0.106 µM) | 0.049 (≈ 0.106 µM) | 1.35 | 0.025 (≈ 0.0539 µM) | 0.049 (≈ 0.106 µM)
C[C@@H](O)[C@H]1C(=O)N2C(C(=O)O)=C(SCCNC=N)C[C@H]12 [IMIPENEM ANHYDROUS] | 0.781 (≈ 2.61 µM) | 0.195 (≈ 0.651 µM) | 0.007 (≈ 0.0234 µM) | 1.56 (≈ 5.22 µM) | 0.098 (≈ 0.327 µM) | 0.013 (≈ 0.0434 µM) | 0.781 (≈ 2.61 µM) | 0.195 (≈ 0.651 µM) | 0.391 (≈ 1.31 µM) | 0.025 (≈ 0.0835 µM) | 0.19 | 0.195 (≈ 0.651 µM) | 0.025 (≈ 0.0835 µM)
C[C@@H](O)[C@H]1C(=O)N2C(C(=O)O)=C(S[C@@H]3CN[C@H](/C=C\c4cc(CO)no4)C3)[C@H](C)[C@H]12 | 0.098 (≈ 0.225 µM) | 1.56 (≈ 3.59 µM) | 0.013 (≈ 0.0299 µM) | 3.12 (≈ 7.18 µM) | 0.049 (≈ 0.113 µM) | 0.049 (≈ 0.113 µM) | 3.12 (≈ 7.18 µM) | 0.049 (≈ 0.113 µM) | 0.098 (≈ 0.225 µM) | 0.049 (≈ 0.113 µM) | 1.59 | 0.049 (≈ 0.113 µM) | 0.049 (≈ 0.113 µM)

— ChEMBL document CHEMBL1133072, “Synthesis and biological activity of 1beta-methyl-2-[5'-isoxazoloethenylpyrrolidin-3'-ylthio]carbapenems” (2000)
